Data as given in ChEMBL document CHEMBL5113527, “First-in-Class Hydrazide-Based HDAC6 Selective Inhibitor with Potent Oral Anti-Inflammatory Activity by Attenuating NLRP3 Inflammasome Activation” (J Med Chem, 2022).
The source made the active and inactive calls. The rule behind the calls is not given here.

Key:
Histone deacetylase 7 = biological target: T1, Histone deacetylase 7 (Homo sapiens, UniProt Q8WUI4); assay: Inhibition of recombinant HDAC7 (unknown origin) using Boc-Lys (trifluoroacetyl) AMC as substrate preincubated for 1 hr followed by substrate addition and measured after 2 hrs by fluorescence based microplate reader analysis
T1 sequence (Q8WUI4 whole entry): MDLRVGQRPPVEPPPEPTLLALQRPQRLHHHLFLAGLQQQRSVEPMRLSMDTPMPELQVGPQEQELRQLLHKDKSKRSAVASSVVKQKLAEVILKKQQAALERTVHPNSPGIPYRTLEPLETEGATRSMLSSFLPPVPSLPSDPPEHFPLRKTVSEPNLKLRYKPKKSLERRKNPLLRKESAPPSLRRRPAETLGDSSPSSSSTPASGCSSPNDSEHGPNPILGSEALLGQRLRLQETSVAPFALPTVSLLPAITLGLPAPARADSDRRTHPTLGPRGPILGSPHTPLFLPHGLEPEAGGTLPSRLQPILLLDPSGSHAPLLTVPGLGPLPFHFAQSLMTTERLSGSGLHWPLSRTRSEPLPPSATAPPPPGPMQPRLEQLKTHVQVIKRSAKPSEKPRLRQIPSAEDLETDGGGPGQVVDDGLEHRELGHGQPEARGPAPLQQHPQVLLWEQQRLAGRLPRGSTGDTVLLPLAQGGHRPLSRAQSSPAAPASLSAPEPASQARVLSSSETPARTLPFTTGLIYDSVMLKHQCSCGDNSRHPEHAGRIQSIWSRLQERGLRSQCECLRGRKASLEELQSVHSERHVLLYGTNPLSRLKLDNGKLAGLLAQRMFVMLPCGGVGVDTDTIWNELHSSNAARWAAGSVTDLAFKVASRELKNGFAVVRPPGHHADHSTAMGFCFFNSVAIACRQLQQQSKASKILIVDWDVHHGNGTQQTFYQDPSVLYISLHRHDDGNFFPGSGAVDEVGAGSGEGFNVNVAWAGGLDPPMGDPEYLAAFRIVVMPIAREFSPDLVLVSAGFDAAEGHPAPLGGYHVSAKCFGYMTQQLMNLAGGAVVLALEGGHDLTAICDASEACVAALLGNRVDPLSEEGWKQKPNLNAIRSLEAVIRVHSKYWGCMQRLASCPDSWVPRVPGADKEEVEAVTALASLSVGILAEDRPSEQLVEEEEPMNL

[1] = AUC(0 to infinity) in CD-1 mouse at 5 mg/kg, iv measured after 0.083 to 24 hrs by LC-MS/MS analysis; assay type: ADME, organism-based; parameters: dose 5 mg/kg, time upper 24 hrs, time lower 0.083 hrs, route iv; details: in vivo
[2] = Ratio of drug concentration in brain to plasma of CD-1 mouse measured after 4 hrs by LC-MS/MS analysis; assay type: ADME; details: read-out: BPR
[3] = biological target: T2, Protein deacetylase HDAC6 (Homo sapiens) (UniProt Q9UBN7); assay: Inhibition of full length recombinant human HDAC6 in MV4-11 cells assessed as accumulation of acetylated alpha-tubulin at 0.1 to 1 uM measured upto 24 hrs by western blot analysis; assay type: cell-based; details: dose 0.1-1 µM, DDE = dose-dependent effect
T2 sequence (whole entry): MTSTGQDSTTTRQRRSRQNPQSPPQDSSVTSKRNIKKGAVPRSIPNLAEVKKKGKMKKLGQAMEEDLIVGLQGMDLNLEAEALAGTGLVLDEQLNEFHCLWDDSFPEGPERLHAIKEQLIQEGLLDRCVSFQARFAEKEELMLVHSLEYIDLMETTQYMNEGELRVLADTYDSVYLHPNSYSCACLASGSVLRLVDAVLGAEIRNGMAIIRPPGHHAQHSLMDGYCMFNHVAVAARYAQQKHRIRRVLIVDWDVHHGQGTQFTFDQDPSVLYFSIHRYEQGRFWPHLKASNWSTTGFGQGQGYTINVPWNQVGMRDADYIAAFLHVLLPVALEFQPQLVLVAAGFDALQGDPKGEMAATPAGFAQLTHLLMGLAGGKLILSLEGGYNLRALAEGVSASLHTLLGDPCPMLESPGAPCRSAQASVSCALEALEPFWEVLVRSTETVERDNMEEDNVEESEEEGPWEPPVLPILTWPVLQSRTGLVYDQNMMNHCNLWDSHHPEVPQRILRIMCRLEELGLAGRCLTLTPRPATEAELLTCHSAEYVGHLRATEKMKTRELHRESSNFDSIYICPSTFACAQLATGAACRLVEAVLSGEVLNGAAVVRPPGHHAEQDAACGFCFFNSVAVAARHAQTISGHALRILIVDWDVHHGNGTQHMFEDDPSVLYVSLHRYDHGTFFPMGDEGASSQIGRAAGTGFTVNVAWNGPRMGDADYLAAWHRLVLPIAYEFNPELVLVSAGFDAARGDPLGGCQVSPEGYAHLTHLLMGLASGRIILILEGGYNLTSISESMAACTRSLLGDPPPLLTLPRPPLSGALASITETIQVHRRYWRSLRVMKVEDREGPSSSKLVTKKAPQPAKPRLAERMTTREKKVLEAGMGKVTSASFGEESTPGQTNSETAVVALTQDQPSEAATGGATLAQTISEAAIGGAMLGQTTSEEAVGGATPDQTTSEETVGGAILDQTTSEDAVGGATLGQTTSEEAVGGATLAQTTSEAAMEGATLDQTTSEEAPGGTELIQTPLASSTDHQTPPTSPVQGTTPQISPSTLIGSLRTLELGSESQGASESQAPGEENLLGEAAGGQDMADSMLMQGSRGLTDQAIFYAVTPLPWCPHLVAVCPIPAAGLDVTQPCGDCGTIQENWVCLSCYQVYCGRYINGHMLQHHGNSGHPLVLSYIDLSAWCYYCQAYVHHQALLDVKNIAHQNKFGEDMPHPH

[4] = biological target: T3, Protein deacetylase HDAC6 (Homo sapiens, UniProt Q9UBN7); assay: Inhibition of recombinant HDAC6 (unknown origin) using Boc-Lys(acetyl)-AMC as substrate preincubated for 60 mins followed by substrate addition and measured after 2 hrs by fluorescence based microplate reader analysis
T3 sequence (Q9UBN7 whole entry): T2 sequence (whole entry)

Mus musculus = assay: Inhibition of LPS-induced endotoxic shock in C57BL/6 mouse model serum assessed as decrease in IL-1beta level at 10 mg/kg, ip pretreated for 1 hr followed by LPS addition measured after 12 hrs; assay type: functional, organism-based; details: time 13.0 hrs
[5] = Half life in CD-1 mouse at 20 mg/kg, po measured after 0.083 to 24 hrs by LC-MS/MS analysis; assay type: ADME, organism-based; details: in vivo, time 0.083-24 hrs

In the case of `CCNNC(=O)c1ccc(CN2c3ccccc3C=Cc3ccncc32)cc1`, the IC50 (Histone deacetylase 7) is reported as over 5 µM, the AUC(0-inf) [1] is reported as 2760 ng·h/mL and the Kp at 4 h [2] is reported as 1.51. For the same compound, the inhibition [3] was “Dde”, the IC50 [4] was 0.0325 µM and the Activity (Mus musculus) was “Active”. For the same compound, the half-life [5] was 6.8 h.
